Biological target: Cannabinoid receptor 2 (Homo sapiens, UniProt P34972)
Experiment: Binding affinity towards cloned human cannabinoid receptor 2

Cannabinoid receptor 2, sequence (P34972 whole entry): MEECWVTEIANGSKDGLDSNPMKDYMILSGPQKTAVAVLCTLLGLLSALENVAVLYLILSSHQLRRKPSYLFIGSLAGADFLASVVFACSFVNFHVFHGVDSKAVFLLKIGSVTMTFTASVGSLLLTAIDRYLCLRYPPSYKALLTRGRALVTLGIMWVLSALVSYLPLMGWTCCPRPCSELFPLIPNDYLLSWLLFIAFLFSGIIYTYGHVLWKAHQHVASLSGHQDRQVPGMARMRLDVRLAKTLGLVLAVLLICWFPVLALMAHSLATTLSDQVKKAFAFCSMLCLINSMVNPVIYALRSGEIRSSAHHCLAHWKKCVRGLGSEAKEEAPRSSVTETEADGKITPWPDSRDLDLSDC

CCCCCn1ccc(C(=O)c2cccc3ccccc23)c1
Ki: 320 nM

CC1=CCC2C(C1)c1c(O)cc(CCCCC(F)(F)F)cc1OC2(C)C (stereo not given)
Ki: 30 nM

CCCCC/C=C\C/C=C\C/C=C\C/C=C\CCCC(=O)N1CCOCC1
Ki: 540 nM

CCCCC/C=C\C/C=C\C/C=C\C/C=C\CCC(C(=O)NCCO)C(C)C (stereo not given)
Ki: 5100 nM

CC1=CCC2C(C1)c1c(O)cc(CCCCCF)cc1OC2(C)C (stereo not given)
Ki: 8.7 nM

CCCCC/C=C\C/C=C\C/C=C\C/C=C\CCC(C)C(=O)NCCF (stereo not given) [2-Methyl-icosa-5,8,11,14-tetraenoic acid (2-fluoro-ethyl)-amide (0689)]
Ki: 130 nM

CCCCCc1cc(O)c2c(c1)OC(C)(C)c1ccc(C)cc1-2 [6,6,9-Trimethyl-3-pentyl-6H-benzo[c]chromen-1-ol(Cannabinol)]
Ki: 95 nM

CCCCC/C=C\C/C=C\C/C=C\C/C=C\CCCC(=O)NCCF [(5Z,8Z,11Z,14Z)-Icosa-5,8,11,14-tetraenoic acid (2-fluoro-ethyl)-amide]
Ki: 320 nM

CCCCC/C=C\C/C=C\C/C=C\C/C=C\CCCC(=O)NCCOC [(5Z,8Z,11Z,14Z)-Icosa-5,8,11,14-tetraenoic acid (2-methoxy-ethyl)-amide]
Ki: 450 nM

CCCCCn1c(C)c(C(=O)c2cccc3ccccc23)c2ccccc21 [JWH-007]
Ki: 3 nM
